Results published in patent publication EP1121940A1, “Pharmaceutical compositions comprising an antibiotic and bromhexine, and process for their preparation” (New Pharma Research Sweden AB, priority 2000, dated 2001).

Legend:
[1] = solutions of pH greater than six; cited from earlier work
Escherichia coli = assay: Efficacy in the treatment of Escherichia coli infected chickens; format: in vivo, broiler chickens; settings: oral via drinking water, three consecutive days, recorded over ten days following treatment
Text: (§1) The aim of this study was to evaluate the effect of a treatment with a composition in accordance with the present invention on the mortality and clinical signs of chickens naturally infected by Escherichia coli, and to compare the efficacy of this treatment with the efficacy of a treatment with a composition containing only the antibiotic.
10 000 broiler chickens aged 1 day were used for the experiment. The birds were infected by natural infection by Escherichia coli.
(§2) The birds were then divided into 2 equal groups of 5 000 birds each. The first group was treated with a composition containing only enrofloxacin. The second group was treated with the composition of Example 1 of the present invention, containing both enrofloxacin and bromhexine-HCl. Thus, 1 ml of composition contained either 200 mg of enrofloxacin (composition for the treatment of the first group) or 200 mg of enrofloxacin and 10 mg of bromhexine-HCl (composition for the treatment of the second group).
For both groups, the treatment was made orally, for three consecutive days, and using the drinking water, at a dose of 1 ml of active composition per 4 litres of drinking water.
To assess the efficacy of the treatment, the mortality and body weight of the animals were recorded for each group over a period of ten days following the treatment.

pneumonia infection = assay: Efficacy in the treatment of calves suffering from a pneumonia infection; format: in vivo; settings: intramuscular injection once a day for four consecutive days, results after 5 days
Text: as §1, with “calves suffering from a pneumonia infection,” for “chickens naturally infected by Escherichia coli,”
20 calves aged 1 to 4 months were used for the experiment. The animals were suffering from a pneumonia infection, characterized by severe respiratory disorders including coughing, rale and increased body temperature (measured between +39.5°C and +41°C).
as §2, with “calves” for “birds”, “were” for “were then”, “10 animals” for “5 000 birds”, “invention, i.e.” for “invention,”
For both groups, the treatment was made by intramuscular injection, once a day and for four consecutive days, at a dose of 1 ml of active composition per 80 kg of animal body weight.
To assess the efficacy of the treatment, the mortality and body temperature of the animals were recorded for each group over a period of ten days following the treatment.

Row | SMILES | precipitation in solutions [1] | Mortality % (Escherichia coli; 1 ml composition per 4 litres) [%] | Mortality dead birds (Escherichia coli; 1 ml composition per 4 litres, 5000 birds per group) | Weight g/bird (Escherichia coli) [g/bird] | Mortality % (pneumonia infection; 1 ml per 80 kg body weight) [%] | Mortality dead animals (pneumonia infection; 1 ml per 80 kg body weight, 10 calves per group) | Body temperature (pneumonia infection)
1 | CN(Cc1cc(Br)cc(Br)c1N)C1CCCCC1.Cl [Bromhexine-HCl, N-(2-amino-3,5-dibromobenzyl)-N-methyl-cyclohexylamine hydrochloride] | precipitate | – | – | – | – | – | –
2 | CCN1CCN(c2cc3c(cc2F)c(=O)c(C(=O)O)cn3C2CC2)CC1 [Enrofloxacine, 1-cyclopropyl-7-(4-ethyl-1-piperazinyl)-6-fluoro-1,4-dihydro-4-oxo-3-quinoline carboxylic acid] | – | 2.23 | 113/5000 | 1810 | 10 | 1/10 | over 41.5 °C
